Laboratory results from PubChem BioAssay AID2060497 (Molecular Pharmacology Branch, DTP, NCI, 2025).
pIC50: −log10 of the molar value.

System: 317291-083-R-J1-PDC complex spheroids, viability
Assay: Anticancer human tumor 317291-083-R-J1-PDC patient-derived soft tissue sarcoma cell line growth inhibition [GQUAD]
Details: for pIC50: curve of first compound; for viability, T/C: stronger effect = lower value
Summary of the method: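 Tumor cells were grown as complex spheroids with HUVEC endothelial cells and mesenchymal stem cells as stroma. G-quadruplex stabilizers were combined with targeted agents over half-log dilutions from near the clinical Cmax, or from 10 microM.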

[1] = second compound 0.0316 µM, first compound 0.0316 µM
[2] = second compound 0.0316 µM, first compound 0.1 µM
[3] = second compound 0.0316 µM, first compound 0.316 µM
[4] = second compound 0.0316 µM, first compound 1 µM
[5] = second compound 0.0316 µM, first compound 3.16 µM
[6] = second compound 0.0316 µM, first compound 10 µM
[7] = second compound 0.1 µM, first compound 0.0316 µM
[8] = second compound 0.1 µM, first compound 0.1 µM
[9] = second compound 0.1 µM, first compound 0.316 µM
[10] = second compound 0.1 µM, first compound 1 µM
[11] = second compound 0.1 µM, first compound 3.16 µM
[12] = second compound 0.1 µM, first compound 10 µM
[13] = second compound 0.316 µM, first compound 0.0316 µM
[14] = second compound 0.316 µM, first compound 0.1 µM
[15] = second compound 0.316 µM, first compound 0.316 µM
[16] = second compound 0.316 µM, first compound 1 µM
[17] = second compound 0.316 µM, first compound 3.16 µM
[18] = second compound 0.316 µM, first compound 10 µM
[19] = second compound 1 µM, first compound 0.0316 µM
[20] = second compound 1 µM, first compound 0.1 µM
[21] = second compound 1 µM, first compound 0.316 µM
[22] = second compound 1 µM, first compound 1 µM
[23] = second compound 1 µM, first compound 3.16 µM
[24] = second compound 1 µM, first compound 10 µM
[25] = second compound 3.16 µM, first compound 0.0316 µM
[26] = second compound 3.16 µM, first compound 0.1 µM
[27] = second compound 3.16 µM, first compound 0.316 µM
[28] = second compound 3.16 µM, first compound 1 µM
[29] = second compound 3.16 µM, first compound 3.16 µM
[30] = second compound 3.16 µM, first compound 10 µM
[31] = second compound 10 µM, first compound 0.0316 µM
[32] = second compound 10 µM, first compound 0.1 µM
[33] = second compound 10 µM, first compound 0.316 µM
[34] = second compound 10 µM, first compound 1 µM
[35] = second compound 10 µM, first compound 3.16 µM
[36] = second compound 10 µM, first compound 10 µM
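Further: spheroids exposed to compounds for one week before readout.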
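Wherever viability, T/C is given: percent viability relative to DMSO vehicle wells taken as 100%.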

CCCS(=O)(=O)Nc1ccc(F)c(C(=O)c2c[nH]c3ncc(-c4ccc(Cl)cc4)cc23)c1F + CN(C)c1ccc(Nc2c3ccc(NC(=O)CCN4CCCC4)cc3nc3cc(NC(=O)CCN4CCCC4)ccc23)cc1 was tested, and the pIC50 (second compound 0.0316 µM) was 5.38, the pIC50 (second compound 0.1 µM) was 5.42 and the pIC50 (second compound 0.316 µM) was 6.16. It also gave a pIC50 (second compound 1 µM) of over 7.50, a pIC50 (second compound 3.16 µM) of over 7.50 and a pIC50 (second compound 10 µM) of over 7.50. For the same compound, the viability, T/C [1] was 121%, the viability, T/C [2] was 107% and the viability, T/C [3] was 108%. For the same compound, the viability, T/C [4] was 102%, the viability, T/C [5] was 60.4% and the viability, T/C [6] was 15.4%. It also gave a viability, T/C [7] of 106%, a viability, T/C [8] of 99.9% and a viability, T/C [9] of 82.9%. The viability, T/C [10] was 87.1%, the viability, T/C [11] was 56.9% and the viability, T/C [12] was 13.6%. For the same compound, the viability, T/C [13] was 86.6%, the viability, T/C [14] was 72.3% and the viability, T/C [15] was 56.3%. The viability, T/C [16] was 49.2%, the viability, T/C [17] was 30.6% and the viability, T/C [18] was 14.1%. The viability, T/C [19] was 45.6%, the viability, T/C [20] was 25.1% and the viability, T/C [21] was 38.2%. It also gave a viability, T/C [22] of 30.3%, a viability, T/C [23] of 28.7% and a viability, T/C [24] of 6.94%. It also gave a viability, T/C [25] of 5.58%, a viability, T/C [26] of 0.71% and a viability, T/C [27] of 9.21%. For the same compound, the viability, T/C [28] was 1.39%, the viability, T/C [29] was 4.27% and the viability, T/C [30] was 1.07%. For the same compound, the viability, T/C [31] was 0.47%, the viability, T/C [32] was 0.37% and the viability, T/C [33] was 0.54%. For the same compound, the viability, T/C [34] was 2.11%, the viability, T/C [35] was 0.46% and the viability, T/C [36] was 0.51%.

Compound Cc1[nH]c2ccccc2c1CCNCc1ccc(/C=C/C(=O)NO)cc1 + CN(C)c1ccc(Nc2c3ccc(NC(=O)CCN4CCCC4)cc3nc3cc(NC(=O)CCN4CCCC4)ccc23)cc1 has a pIC50 (second compound 0.0316 µM) of 7.40, a pIC50 (second compound 0.1 µM) of 7.45 and a pIC50 (second compound 0.316 µM) of 7.71. The pIC50 (second compound 1 µM) was over 9.00, the pIC50 (second compound 3.16 µM) was over 9.00 and the pIC50 (second compound 10 µM) was over 9.00. For the same compound, the viability, T/C (second compound 0.0316 µM, first compound 0.000999 µM) was 104%, the viability, T/C (second compound 0.0316 µM, first compound 0.00316 µM) was 121% and the viability, T/C (second compound 0.0316 µM, first compound 0.00999 µM) was 101%. For the same compound, the viability, T/C [1] was 61.3%, the viability, T/C (second compound 0.0316 µM, first compound 0.0999 µM) was 8.25% and the viability, T/C [3] was 0.39%. The viability, T/C (second compound 0.1 µM, first compound 0.000999 µM) was 119%, the viability, T/C (second compound 0.1 µM, first compound 0.00316 µM) was 102% and the viability, T/C (second compound 0.1 µM, first compound 0.00999 µM) was 95.4%. It also gave a viability, T/C [7] of 56.6%, a viability, T/C (second compound 0.1 µM, first compound 0.0999 µM) of 7.42% and a viability, T/C [9] of 0.13%. The viability, T/C (second compound 0.316 µM, first compound 0.000999 µM) was 79.9%, the viability, T/C (second compound 0.316 µM, first compound 0.00316 µM) was 75.7% and the viability, T/C (second compound 0.316 µM, first compound 0.00999 µM) was 74.9%. The viability, T/C [13] was 33.1%, the viability, T/C (second compound 0.316 µM, first compound 0.0999 µM) was 5.76% and the viability, T/C [15] was 0.14%. It also gave a viability, T/C (second compound 1 µM, first compound 0.000999 µM) of 48.6%, a viability, T/C (second compound 1 µM, first compound 0.00316 µM) of 30.2% and a viability, T/C (second compound 1 µM, first compound 0.00999 µM) of 33.6%. The viability, T/C [19] was 15.8%, the viability, T/C (second compound 1 µM, first compound 0.0999 µM) was 2.82% and the viability, T/C [21] was 0.27%. The viability, T/C (second compound 3.16 µM, first compound 0.000999 µM) was 6.7%, the viability, T/C (second compound 3.16 µM, first compound 0.00316 µM) was 4.52% and the viability, T/C (second compound 3.16 µM, first compound 0.00999 µM) was 7.77%. It also gave a viability, T/C [25] of 1.86%, a viability, T/C (second compound 3.16 µM, first compound 0.0999 µM) of 0.59% and a viability, T/C [27] of 0.18%. For the same compound, the viability, T/C (second compound 10 µM, first compound 0.000999 µM) was 0.17%, the viability, T/C (second compound 10 µM, first compound 0.00316 µM) was 0.22% and the viability, T/C (second compound 10 µM, first compound 0.00999 µM) was 0.54%. For the same compound, the viability, T/C [31] was 2%, the viability, T/C (second compound 10 µM, first compound 0.0999 µM) was 0.38% and the viability, T/C [33] was 0.28%.

Compound O=C(NO)c1cnc(N2CCN(S(=O)(=O)c3ccc4ccccc4c3)CC2)nc1 + CN(C)c1ccc(Nc2c3ccc(NC(=O)CCN4CCCC4)cc3nc3cc(NC(=O)CCN4CCCC4)ccc23)cc1 has a pIC50 (second compound 0.0316 µM) of 6.92, a pIC50 (second compound 0.1 µM) of 6.87 and a pIC50 (second compound 0.316 µM) of 7.10. It also gave a pIC50 (second compound 1 µM) of over 7.50, a pIC50 (second compound 3.16 µM) of over 7.50 and a pIC50 (second compound 10 µM) of over 7.50. It also gave a viability, T/C [1] of 102%, a viability, T/C [2] of 58.3% and a viability, T/C [3] of 5.38%. For the same compound, the viability, T/C [4] was 0.53%, the viability, T/C [5] was 0.02% and the viability, T/C [6] was 0.56%. It also gave a viability, T/C [7] of 97.1%, a viability, T/C [8] of 64.3% and a viability, T/C [9] of 7.56%. It also gave a viability, T/C [10] of 0.08%, a viability, T/C [11] of 0.71% and a viability, T/C [12] of 0.06%. The viability, T/C [13] was 90.5%, the viability, T/C [14] was 39.5% and the viability, T/C [15] was 5.83%. For the same compound, the viability, T/C [16] was 0.06%, the viability, T/C [17] was 0.09% and the viability, T/C [18] was 0.1%. For the same compound, the viability, T/C [19] was 38.2%, the viability, T/C [20] was 18.5% and the viability, T/C [21] was 1.87%. The viability, T/C [22] was 0.1%, the viability, T/C [23] was 0.06% and the viability, T/C [24] was 0.08%. It also gave a viability, T/C [25] of 10.9%, a viability, T/C [26] of 1.33% and a viability, T/C [27] of 0.19%. The viability, T/C [28] was 0.07%, the viability, T/C [29] was 0.12% and the viability, T/C [30] was 0.09%. For the same compound, the viability, T/C [31] was 1.1%, the viability, T/C [32] was 0.76% and the viability, T/C [33] was 0.24%. It also gave a viability, T/C [34] of 0.36%, a viability, T/C [35] of 0.28% and a viability, T/C [36] of 0.21%.
